ChEMBL document CHEMBL5653631, “A Potent and Selective ULK1 Inhibitor Suppresses Autophagy and Sensitizes Cancer Cells to Nutrient Stress” (iScience, 2018)
Values belong to the molecule of their own block, whether it stands above or below them.

Key:
[1] = biological target: Tyrosine-protein kinase HCK (Homo sapiens) (UniProt P08631); assay: Inhibition of human recombinant HCK at 500 nM related to control ULK1
[2] = biological target: T1, Serine/threonine-protein kinase DCLK3 (Homo sapiens) (UniProt Q9C098); assay: Inhibition of human recombinant DCAMKL3 at 500 nM related to control ULK1
T1 sequence (whole entry): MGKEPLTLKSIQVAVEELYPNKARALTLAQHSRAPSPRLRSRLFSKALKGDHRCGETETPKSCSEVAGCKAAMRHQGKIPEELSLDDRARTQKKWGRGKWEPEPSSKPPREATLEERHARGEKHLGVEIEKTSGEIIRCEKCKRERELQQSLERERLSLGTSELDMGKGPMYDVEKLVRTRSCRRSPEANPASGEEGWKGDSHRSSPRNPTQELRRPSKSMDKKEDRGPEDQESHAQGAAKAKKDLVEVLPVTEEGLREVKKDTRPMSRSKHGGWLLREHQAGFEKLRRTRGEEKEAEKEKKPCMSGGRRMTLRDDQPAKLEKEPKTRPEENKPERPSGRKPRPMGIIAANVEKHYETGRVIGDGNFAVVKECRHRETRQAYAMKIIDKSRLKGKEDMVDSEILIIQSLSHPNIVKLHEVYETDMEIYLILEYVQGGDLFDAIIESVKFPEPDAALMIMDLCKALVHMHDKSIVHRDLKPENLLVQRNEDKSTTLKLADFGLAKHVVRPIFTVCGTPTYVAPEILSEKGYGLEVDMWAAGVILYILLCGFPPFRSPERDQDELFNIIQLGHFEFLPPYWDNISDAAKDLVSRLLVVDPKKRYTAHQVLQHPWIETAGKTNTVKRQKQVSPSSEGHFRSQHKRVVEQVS

[3] = biological target: T2, Muscle, skeletal receptor tyrosine-protein kinase (Homo sapiens) (UniProt O15146); assay: Inhibition of human recombinant MUSK at 15 nM in presence of ATP by radiometric assay relative to control
T2 sequence (whole entry): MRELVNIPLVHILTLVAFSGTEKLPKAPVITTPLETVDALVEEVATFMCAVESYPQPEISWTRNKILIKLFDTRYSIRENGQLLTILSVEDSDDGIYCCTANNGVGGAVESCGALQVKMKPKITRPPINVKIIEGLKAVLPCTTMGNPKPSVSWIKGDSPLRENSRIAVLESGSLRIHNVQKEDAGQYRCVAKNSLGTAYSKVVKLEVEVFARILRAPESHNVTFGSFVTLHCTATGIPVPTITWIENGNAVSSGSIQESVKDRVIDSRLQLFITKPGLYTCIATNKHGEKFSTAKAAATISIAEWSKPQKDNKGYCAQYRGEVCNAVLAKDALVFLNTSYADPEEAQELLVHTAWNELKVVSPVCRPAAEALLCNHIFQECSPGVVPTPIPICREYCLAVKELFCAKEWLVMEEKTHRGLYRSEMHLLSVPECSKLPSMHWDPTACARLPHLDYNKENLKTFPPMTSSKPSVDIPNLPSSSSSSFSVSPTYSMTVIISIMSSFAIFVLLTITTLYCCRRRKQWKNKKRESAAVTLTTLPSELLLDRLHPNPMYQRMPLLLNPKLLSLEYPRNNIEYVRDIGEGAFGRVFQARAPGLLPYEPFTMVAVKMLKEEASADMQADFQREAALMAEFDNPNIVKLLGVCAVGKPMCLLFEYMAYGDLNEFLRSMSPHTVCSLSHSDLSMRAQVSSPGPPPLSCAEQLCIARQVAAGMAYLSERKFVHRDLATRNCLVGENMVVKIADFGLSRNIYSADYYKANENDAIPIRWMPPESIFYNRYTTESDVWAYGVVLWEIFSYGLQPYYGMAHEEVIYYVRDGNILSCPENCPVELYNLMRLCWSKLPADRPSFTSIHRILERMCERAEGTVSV

[4] = biological target: Ribosomal protein S6 kinase alpha-5 (Homo sapiens) (UniProt O75582); assay: Inhibition of human recombinant MSK1 at 40 nM related to control ULK1
Chain of Ribosomal protein S6 kinase alpha-5 (Homo sapiens) (O75582 whole entry, looked up): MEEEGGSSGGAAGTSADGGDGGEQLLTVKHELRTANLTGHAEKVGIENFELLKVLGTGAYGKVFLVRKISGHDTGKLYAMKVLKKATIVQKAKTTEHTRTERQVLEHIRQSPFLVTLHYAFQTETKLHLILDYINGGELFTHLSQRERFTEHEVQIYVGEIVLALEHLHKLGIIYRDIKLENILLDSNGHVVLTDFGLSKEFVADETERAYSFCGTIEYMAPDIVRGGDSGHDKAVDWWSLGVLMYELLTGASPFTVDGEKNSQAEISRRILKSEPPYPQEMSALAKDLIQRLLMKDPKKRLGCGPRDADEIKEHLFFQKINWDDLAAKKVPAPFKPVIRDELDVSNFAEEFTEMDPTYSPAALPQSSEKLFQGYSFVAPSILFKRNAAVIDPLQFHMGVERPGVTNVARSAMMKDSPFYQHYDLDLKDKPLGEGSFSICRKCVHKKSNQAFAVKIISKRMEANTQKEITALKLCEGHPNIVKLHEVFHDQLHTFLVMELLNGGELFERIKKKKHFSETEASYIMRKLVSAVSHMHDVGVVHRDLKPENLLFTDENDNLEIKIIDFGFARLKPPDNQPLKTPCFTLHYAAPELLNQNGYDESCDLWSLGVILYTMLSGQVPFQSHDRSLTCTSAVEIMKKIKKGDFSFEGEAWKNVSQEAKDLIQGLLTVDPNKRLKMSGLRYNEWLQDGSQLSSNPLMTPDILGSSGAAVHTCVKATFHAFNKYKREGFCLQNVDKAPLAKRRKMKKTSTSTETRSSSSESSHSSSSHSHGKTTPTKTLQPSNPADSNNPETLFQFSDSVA

[5] = biological target: T3, Serine/threonine-protein kinase TAO2 (Homo sapiens) (UniProt Q9UL54); assay: Inhibition of human recombinant TAO2 at 40 nM in presence of ATP by radiometric assay relative to control
T3 sequence (whole entry): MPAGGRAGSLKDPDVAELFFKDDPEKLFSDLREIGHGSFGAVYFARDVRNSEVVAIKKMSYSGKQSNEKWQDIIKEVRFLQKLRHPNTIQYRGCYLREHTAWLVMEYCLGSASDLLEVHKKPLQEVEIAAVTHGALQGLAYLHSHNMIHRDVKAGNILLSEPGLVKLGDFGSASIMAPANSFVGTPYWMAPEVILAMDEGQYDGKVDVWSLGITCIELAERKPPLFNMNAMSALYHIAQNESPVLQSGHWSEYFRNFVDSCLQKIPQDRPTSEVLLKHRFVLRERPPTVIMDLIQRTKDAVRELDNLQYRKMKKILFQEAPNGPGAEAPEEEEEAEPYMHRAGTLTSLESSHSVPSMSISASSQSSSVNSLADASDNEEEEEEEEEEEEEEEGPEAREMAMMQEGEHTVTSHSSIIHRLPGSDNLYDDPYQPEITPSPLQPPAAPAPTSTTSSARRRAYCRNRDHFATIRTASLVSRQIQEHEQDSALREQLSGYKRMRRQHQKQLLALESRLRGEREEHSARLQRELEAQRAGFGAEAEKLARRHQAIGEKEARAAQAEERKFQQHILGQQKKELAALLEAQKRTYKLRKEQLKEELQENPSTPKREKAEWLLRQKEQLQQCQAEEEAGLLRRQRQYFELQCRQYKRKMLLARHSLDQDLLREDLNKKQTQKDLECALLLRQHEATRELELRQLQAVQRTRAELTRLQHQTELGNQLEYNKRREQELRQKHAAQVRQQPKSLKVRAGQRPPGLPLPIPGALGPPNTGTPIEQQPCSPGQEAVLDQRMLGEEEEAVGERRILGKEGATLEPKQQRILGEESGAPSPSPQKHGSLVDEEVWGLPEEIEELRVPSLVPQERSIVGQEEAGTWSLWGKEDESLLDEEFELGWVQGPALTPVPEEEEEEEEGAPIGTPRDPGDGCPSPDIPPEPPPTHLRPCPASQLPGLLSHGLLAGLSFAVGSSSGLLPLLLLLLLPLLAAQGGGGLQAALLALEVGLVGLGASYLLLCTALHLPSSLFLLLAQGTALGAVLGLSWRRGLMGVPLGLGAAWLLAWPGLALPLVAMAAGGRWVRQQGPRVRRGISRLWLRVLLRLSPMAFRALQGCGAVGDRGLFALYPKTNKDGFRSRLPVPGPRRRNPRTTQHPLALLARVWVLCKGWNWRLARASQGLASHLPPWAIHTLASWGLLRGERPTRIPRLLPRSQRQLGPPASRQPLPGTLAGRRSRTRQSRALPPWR

Chain of Tyrosine-protein kinase HCK (Homo sapiens) (P08631 2-526 limits assumed): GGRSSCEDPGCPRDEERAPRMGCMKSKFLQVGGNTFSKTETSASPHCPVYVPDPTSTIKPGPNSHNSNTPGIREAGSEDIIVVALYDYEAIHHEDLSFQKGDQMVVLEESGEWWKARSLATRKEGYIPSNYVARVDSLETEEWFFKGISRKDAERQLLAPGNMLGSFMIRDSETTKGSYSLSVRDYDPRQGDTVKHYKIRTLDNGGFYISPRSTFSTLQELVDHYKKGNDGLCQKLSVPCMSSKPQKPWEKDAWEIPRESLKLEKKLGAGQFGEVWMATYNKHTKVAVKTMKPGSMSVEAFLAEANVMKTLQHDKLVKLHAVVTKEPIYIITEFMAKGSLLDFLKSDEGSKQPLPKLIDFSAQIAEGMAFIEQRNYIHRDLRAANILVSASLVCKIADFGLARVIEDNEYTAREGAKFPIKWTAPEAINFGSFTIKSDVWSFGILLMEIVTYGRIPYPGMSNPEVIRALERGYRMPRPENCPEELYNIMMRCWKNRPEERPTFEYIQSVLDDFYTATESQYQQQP

- fold change (FC) [1]: 0.23
- fold change (FC) [2]: 0
Structure (SMILES): CNC(=O)c1ccccc1Oc1nc(Nc2cc(OC)c(OC)c(OC)c2)ncc1Br

- inhibition [3]: 0%
Structure (SMILES): CC(C)[C@H](NC(=O)c1cc(-c2cnn3cc(-c4ccc(OCCN5CCCCC5)cc4)cnc23)cs1)C(F)(F)F

- fold change (FC) [4]: 0
- inhibition [5]: 3%
Structure (SMILES): O=C(N[C@@H](C1CC1)C(F)(F)F)c1cc(-c2cnn3cc(-c4ccc(F)cc4)cnc23)cs1
